In ChEMBL document CHEMBL1201862, “PubChem BioAssay data set” (2004):
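Tested at 5 concentrations; 48 h exposure; 96-well plates; endpoints linearly interpolated, else capped at highest concentration. GI50 = concentration required for 50% inhibition of growth.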 The source made the active and inactive calls. Cut-off read from the data, not from the text of the source: active = GI50 up to about 1.1 µM and inactive = higher.

Experiments:
Assay in all cases: DTP human tumour cell line panel, 48 h
NCI-H460 = test system: NCI-H460
SNB-19 = test system: SNB-19
SK-MEL-5 = test system: SK-MEL-5
Malme-3M = test system: Malme-3M
RPMI-8226 = test system: RPMI-8226
HT-29 = test system: HT-29
HCT-15 = test system: HCT-15
UO-31 = test system: UO-31
LOX IMVI = test system: LOX IMVI
OVCAR-4 = test system: OVCAR-4
KM12 = test system: KM12
MOLT-4 = test system: MOLT-4
NCI-H522 = test system: NCI-H522
A498 = test system: A498
SN12C = test system: SN12C
U-251 = test system: U-251
OVCAR-8 = test system: OVCAR-8
HCC 2998 = test system: HCC 2998
HOP-62 = test system: HOP-62
HL-60 = test system: HL-60

Structure (SMILES) | GI50 (NCI-H460) | GI50 (SNB-19) | GI50 (SK-MEL-5) | GI50 (Malme-3M) | GI50 (RPMI-8226) | GI50 (HT-29) | GI50 (HCT-15) [µM] | GI50 (UO-31) | GI50 (LOX IMVI) | GI50 (OVCAR-4) | GI50 (KM12) | GI50 (MOLT-4) | GI50 (NCI-H522) | GI50 (A498) | GI50 (SN12C) | GI50 (U-251) | GI50 (OVCAR-8) | GI50 (HCC 2998) | GI50 (HOP-62) | GI50 (HL-60)
C[C@H](CN1CC(=O)NC(=O)C1)N1CC(=O)NC(=O)C1 | 9.31 µM (inactive) | 50.4 µM (inactive) | > 100 µM (inactive) | 42.9 µM (inactive) | > 53.2 µM (inactive) | > 100 µM (inactive) | > 76.2 | 20 µM (inactive) | > 100 µM (inactive) | > 100 µM (inactive) | > 100 µM (inactive) | 9.89 µM (inactive) | 20.8 µM (inactive) | > 64.6 µM (inactive) | > 85.3 µM (inactive) | 58.2 µM (inactive) | > 100 µM (inactive) | 22.7 µM (inactive) | > 65 µM (inactive) | 
COc1ccc2c(c1)CCCc1cn[nH]c1-2 | > 100 µM (inactive) | > 100 µM (inactive) | > 100 µM (inactive) | > 100 µM (inactive) |  | > 100 µM (inactive) | > 100 | > 100 µM (inactive) | > 100 µM (inactive) | > 100 µM (inactive) | > 100 µM (inactive) | > 100 µM (inactive) | > 100 µM (inactive) | > 100 µM (inactive) | > 100 µM (inactive) | > 100 µM (inactive) | > 100 µM (inactive) | > 100 µM (inactive) | > 100 µM (inactive) | > 100 µM (inactive)
CCNC(=O)N(CC)CN(CC)C(=O)NCC |  | > 100 µM (inactive) |  | > 100 µM (inactive) | > 100 µM (inactive) | > 100 µM (inactive) | > 100 | > 100 µM (inactive) | > 100 µM (inactive) |  | > 100 µM (inactive) | > 100 µM (inactive) | > 100 µM (inactive) | > 100 µM (inactive) | > 100 µM (inactive) |  | > 100 µM (inactive) | > 100 µM (inactive) | > 100 µM (inactive) | > 100 µM (inactive)
O=C1C2=C(C3=NCCc4c[nH]c1c43)C1(C=C(Br)C(O)C(Br)=C1)CCN2 (stereo not given) | 2.33 µM (inactive) | 11.1 µM (inactive) | 1.07 µM (active) |  | 1.9 µM (inactive) | 0.312 µM (active) | 1.16 | 11.1 µM (inactive) | 0.736 µM (active) | 1.47 µM (inactive) | 1.82 µM (inactive) | 0.721 µM (active) | 0.284 µM (active) | 9.95 µM (inactive) | 1.29 µM (inactive) | 2.26 µM (inactive) | 0.647 µM (active) | 1.18 µM (inactive) | 17.9 µM (inactive) | 0.558 µM (active)
CC(C)C1OC(=O)/C=C/C=C/C=C/C=C/C=C/CC(O)C(C)C(O)CC(O)CC(O)CC(O)CC(O)CC(O)CC(O)/C=C/C1C (stereo not given) | > 100 µM (inactive) | > 100 µM (inactive) |  | 70.5 µM (inactive) | > 100 µM (inactive) | > 100 µM (inactive) | > 100 | > 100 µM (inactive) |  | > 100 µM (inactive) | > 100 µM (inactive) | > 100 µM (inactive) | > 100 µM (inactive) | > 100 µM (inactive) |  | > 100 µM (inactive) | > 100 µM (inactive) | > 100 µM (inactive) | > 100 µM (inactive) | > 100 µM (inactive)
CC1=C(C(=O)NNS(=O)(=O)c2ccc(C)cc2)CC(C(=O)NNS(=O)(=O)c2ccc(C)cc2)=C(C)N1 | > 100 µM (inactive) | > 100 µM (inactive) |  | > 100 µM (inactive) | 36.2 µM (inactive) | > 100 µM (inactive) | > 100 | > 100 µM (inactive) | > 100 µM (inactive) | > 100 µM (inactive) | > 100 µM (inactive) | 46.8 µM (inactive) | 66.5 µM (inactive) |  | > 100 µM (inactive) | > 100 µM (inactive) | > 100 µM (inactive) | > 100 µM (inactive) | > 100 µM (inactive) | 55.1 µM (inactive)
COc1ccc(C(O)(c2ccccc2)c2nccc3ccccc23)cc1 (stereo not given) | 5.82 µM (inactive) | 11.9 µM (inactive) | 3.38 µM (inactive) | 0.0966 µM (active) | 7.36 µM (inactive) | 7.46 µM (inactive) | 4.58 | 21 µM (inactive) | 5.18 µM (inactive) | 11 µM (inactive) | 5.71 µM (inactive) | 2.29 µM (inactive) | 6.35 µM (inactive) |  | 22.1 µM (inactive) | 11.7 µM (inactive) | 18.1 µM (inactive) |  | 5.28 µM (inactive) | 2.32 µM (inactive)
Cc1ccc(NC(=O)C(=O)C2C(=O)N(c3ccccc3)N=C2N)cc1C (stereo not given) |  | > 100 µM (inactive) | > 100 µM (inactive) | > 100 µM (inactive) | > 100 µM (inactive) | > 100 µM (inactive) | > 100 | > 100 µM (inactive) |  | > 100 µM (inactive) | > 100 µM (inactive) | > 100 µM (inactive) | > 100 µM (inactive) | > 100 µM (inactive) | > 100 µM (inactive) | > 100 µM (inactive) | > 100 µM (inactive) | > 100 µM (inactive) | > 100 µM (inactive) | > 100 µM (inactive)
CCOC(=O)C1(C(=O)OCC)CSC1 | 0.263 µM (active) | > 100 µM (inactive) | > 100 µM (inactive) |  |  | > 100 µM (inactive) | > 100 | > 100 µM (inactive) | > 100 µM (inactive) | > 100 µM (inactive) | > 100 µM (inactive) | > 100 µM (inactive) | > 100 µM (inactive) | 42 µM (inactive) | > 100 µM (inactive) | > 100 µM (inactive) | > 100 µM (inactive) | 0.192 µM (active) |  | 
CC(=O)OC/C=C\Cn1nc(Br)c(=O)[nH]c1=O | 13.2 µM (inactive) | 18.7 µM (inactive) | 14.6 µM (inactive) | 14.3 µM (inactive) | 25.9 µM (inactive) |  | 13.1 | 16.4 µM (inactive) | 6.75 µM (inactive) |  | 15.5 µM (inactive) |  | 2.81 µM (inactive) | 19.9 µM (inactive) | 23.2 µM (inactive) | 10.5 µM (inactive) | 14.9 µM (inactive) | 15.7 µM (inactive) | 16.3 µM (inactive) | 4.69 µM (inactive)
CC(C)C(=O)CC(c1ccc(Br)cc1)N1N=C(C(C)C)CC1c1ccc(Br)cc1 (stereo not given) | 51.2 µM (inactive) | 50.7 µM (inactive) |  | 31.4 µM (inactive) |  | 18.6 µM (inactive) | 62.4 | 68.7 µM (inactive) | 55.8 µM (inactive) | > 100 µM (inactive) | > 100 µM (inactive) | 31.3 µM (inactive) | 65.9 µM (inactive) |  | > 100 µM (inactive) | 48.8 µM (inactive) | > 100 µM (inactive) | 34.2 µM (inactive) | > 100 µM (inactive) | 
O=C1c2ccccc2C(=O)N1CC(CN1C(=O)c2ccccc2C1=O)(C(=O)OCc1ccccc1)C(=O)OCc1ccccc1 | > 100 µM (inactive) | > 100 µM (inactive) | > 100 µM (inactive) | > 100 µM (inactive) | > 100 µM (inactive) | > 100 µM (inactive) | > 100 | > 100 µM (inactive) |  |  | > 100 µM (inactive) | 7.36 µM (inactive) | > 100 µM (inactive) | > 100 µM (inactive) | > 100 µM (inactive) | > 100 µM (inactive) | > 100 µM (inactive) | > 100 µM (inactive) | > 100 µM (inactive) | > 100 µM (inactive)
CCCNC1=NC(C)=CSC(Nc2ccccc2)=C1C#N |  | > 100 µM (inactive) | > 100 µM (inactive) | > 100 µM (inactive) | > 100 µM (inactive) |  | > 100 | > 100 µM (inactive) |  | > 100 µM (inactive) | > 100 µM (inactive) | > 100 µM (inactive) | > 100 µM (inactive) | > 100 µM (inactive) | > 100 µM (inactive) | > 100 µM (inactive) | > 100 µM (inactive) |  | > 100 µM (inactive) | 
COc1cc(/C=C/C(=O)O)ccc1C(=O)O/C=C/c1ccccc1 | > 100 µM (inactive) | > 100 µM (inactive) | > 100 µM (inactive) | > 100 µM (inactive) | > 100 µM (inactive) | > 100 µM (inactive) | 99.8 | > 66.7 µM (inactive) | 73.1 µM (inactive) | > 100 µM (inactive) | > 100 µM (inactive) | 65.9 µM (inactive) | > 61.9 µM (inactive) | > 85.3 µM (inactive) | > 100 µM (inactive) | > 100 µM (inactive) | > 67.5 µM (inactive) |  | > 100 µM (inactive) | 45.3 µM (inactive)
C[N+]1(C)CCCC(C#N)(c2ccccc2)CC1 (stereo not given) | > 100 µM (inactive) | > 100 µM (inactive) | > 100 µM (inactive) | > 100 µM (inactive) | > 100 µM (inactive) | > 100 µM (inactive) | > 100 | > 100 µM (inactive) |  | > 100 µM (inactive) | > 100 µM (inactive) | > 100 µM (inactive) |  | > 100 µM (inactive) |  | > 100 µM (inactive) | > 100 µM (inactive) | > 100 µM (inactive) | > 100 µM (inactive) | > 100 µM (inactive)
COc1ccc2[nH]c3c(C)c4ccnc(NCCCN(C)CCCNc5ccc6nnn7c8ccccc8c(=O)c5c67)c4c(C)c3c2c1 | 0.0399 µM (active) | 0.711 µM (active) |  |  | 0.0474 µM (active) | 0.0266 µM (active) | 0.114 | 0.603 µM (active) | 0.228 µM (active) | 1.02 µM (active) | 0.432 µM (active) | 0.00104 µM (active) | 0.107 µM (active) | 1.35 µM (inactive) | 0.242 µM (active) | 0.223 µM (active) | 0.297 µM (active) | 0.209 µM (active) | 0.714 µM (active) | 0.135 µM (active)
